Experimental data: paper PMC10426190 (Breast Cancer Research : BCR, 2023)

System: E2-induced (ER target) genes in MCF7
Assay: Gene expression analysis by RNA-sequencing in MCF7 with E2 stimulation
Type: cell-based, human
Details: MCF7; 1 nM E2 ± 1 μM compound, 24 h
Procedure: MCF7 were cultured in hormone deprivation media (with 10% charcoal-stripped FBS) for at least 3 days before assay. Trypsinized cells were seeded in a 12-well plate, stimulated with 1 nM β-estradiol (E2), and treated with/without 1 μM compounds for 24 h. Total RNA was extracted using the TRIzol reagent according to the manufacturer’s protocol. RNA purity and quantification were evaluated using the NanoDrop 2000 spectrophotometer (Thermo Scientific, USA). RNA integrity was assessed using the Agilent 2100 Bioanalyzer (Agilent Technologies, Santa Clara, CA, USA). Then the libraries were constructed using TruSeq Stranded mRNA LT Sample Prep Kit (Illumina, San Diego, CA, USA) according to the manufacturer’s instructions. The transcriptome sequencing and analysis were conducted by OE Biotech Co., Ltd. (Shanghai, China). The libraries were sequenced on an Illumina HiSeq X Ten platform and 150 bp paired-end reads were generated. […] Raw data (raw reads) of FASTq format were firstly processed using Trimmomatic and the low-quality reads were removed to obtain the clean reads. […] The clean reads were mapped to the human genome (GRCh38) using HISAT2 [27]. FPKM [28] of each gene was calculated using Cufflinks, and the read counts of each gene were obtained by HTSeqcount. Differential expression analysis was performed using the DESeq (2012) R package.
MCF7 with hormone-deprived pre-treatment were administrated ER ligands or not present with 1 nM E2 stimulation for 24 h incubation in a 12-well plate. Total mRNA was isolated from treated cells and sequenced on an Illumina HiSeq X Ten platform. FPKM of each gene was calculated using Cufflinks and Differential expression genes analysis by using the DESeq (2012) R package. […] T47D EFM-19 and HCC1500 cells were grown in RPMI media supplemented with 10% charcoal-stripped FBS for 14 days and then treated with ER antagonist (1 μM) or DMSO in the presence E2 (1nM) stimulation for 24 h before RNA isolation and gene expression analysis as described in methods. […] The uteruses were harvested 24 h after the final doses and stained by toluidine blue. Endometrial height was assessed from the basement membrane to the luminal border (scale bar in green lines: 200 μm), Arrows indicate the uterine epithelium (e).

CC/C(=C(\c1ccc(O)cc1)c1ccc(OCCN(C)C)cc1)c1ccccc1 [4-OH-tamoxifen]
KIF18B expression: 3.84 FPKM
KIFC1 expression: 15.12 FPKM
KLK11 expression: 4.66 FPKM
KNL1 expression: 4.05 FPKM
KNTC1 expression: 6.86 FPKM
LHX2 expression: 1.62 FPKM
LIG1 expression: 23.58 FPKM
LMNB1 expression: 53.86 FPKM
MAD2L1 expression: 7.76 FPKM
MCM2 expression: 31.78 FPKM
MCM3 expression: 34.54 FPKM
MCM4 expression: 49.01 FPKM
MCM5 expression: 13.27 FPKM
MCM6 expression: 24.55 FPKM
MCM7 expression: 84.30 FPKM
MCM10 expression: 3.64 FPKM
MELK expression: 11.34 FPKM
MKI67 expression: 21.80 FPKM
MYB expression: 5.81 FPKM
MYBL1 expression: 1.32 FPKM
MYBL2 expression: 46.03 FPKM
NCAPG2 expression: 19.25 FPKM
NCAPG expression: 7.03 FPKM
NPY1R expression: 8.44 FPKM
ORC1 expression: 3.13 FPKM
ORC6 expression: 7.62 FPKM
PAQR4 expression: 12.98 FPKM
PBK expression: 16.47 FPKM
PCLAF expression: 33.01 FPKM
PCNA expression: 59.31 FPKM
PDZK1 expression: 3.59 FPKM
PGR expression: 1.93 FPKM
PKIB expression: 26.05 FPKM
PKMYT1 expression: 12.25 FPKM
POLA1 expression: 3.09 FPKM
POLA2 expression: 5.57 FPKM
POLD1 expression: 11.86 FPKM
POLE2 expression: 2.61 FPKM
POLE expression: 12.83 FPKM
POLQ expression: 2.74 FPKM
PRIM1 expression: 10.94 FPKM
PRSS23 expression: 68.31 FPKM
RAB31 expression: 11.89 FPKM
RAD51AP1 expression: 5.44 FPKM
RAD51 expression: 4.02 FPKM
RAD54L expression: 4.39 FPKM
RAMP3 expression: 3.44 FPKM
RAPGEFL1 expression: 6.63 FPKM
RBL1 expression: 2.35 FPKM
RECQL4 expression: 13.74 FPKM
RERG expression: 3.48 FPKM
RET expression: 4.49 FPKM
RFC2 expression: 18.64 FPKM
RFC3 expression: 4.62 FPKM
RFC4 expression: 14.31 FPKM
RNASEH2A expression: 30.81 FPKM
RRM1 expression: 20.41 FPKM
RRM2 expression: 33.29 FPKM
RUBCNL expression: 1.01 FPKM
SDK2 expression: 0.95 FPKM
SFXN2 expression: 8.23 FPKM
SHCBP1 expression: 3.43 FPKM
SKA3 expression: 5.48 FPKM
SLC6A14 expression: 24.37 FPKM
SMC2 expression: 7.20 FPKM
SPC24 expression: 7.06 FPKM
SPC25 expression: 7.65 FPKM
STC2 expression: 84.89 FPKM
TACC3 expression: 21.35 FPKM
TCF19 expression: 8.96 FPKM
TCOF1 expression: 10.86 FPKM
TGM2 expression: 3.69 FPKM
TICRR expression: 4.37 FPKM
TK1 expression: 57.95 FPKM
TMEM26 expression: 2.14 FPKM
TMEM164 expression: 10.65 FPKM
TONSL expression: 9.87 FPKM
TOP2A expression: 30.91 FPKM
TP73 expression: 1.32 FPKM
TRIP13 expression: 8.37 FPKM
TUBA1B expression: 555.45 FPKM
TUBB expression: 291.22 FPKM
TYMS expression: 31.45 FPKM
UBE2C expression: 31.96 FPKM
UBE2T expression: 41.94 FPKM
UHRF1 expression: 9.20 FPKM
UNG expression: 32.49 FPKM
WDHD1 expression: 4.95 FPKM
WDR62 expression: 5.88 FPKM
WDR76 expression: 1.87 FPKM
XRCC2 expression: 3.37 FPKM
XRCC3 expression: 8.89 FPKM
ZGRF1 expression: 1.82 FPKM
ZNF367 expression: 5.84 FPKM
